{"source": "patent US11807852B2", "about": "“Compositions and methods for reactivating latent immunodeficiency virus” (The J. David Gladstone Institutes, a testamentary trust …, priority 2014, dated 2023)", "key": {"[1]": {"system": "J-Lat cells (clone A2: LTR-Tat-IRES-GFP)", "assay_type": "cell-based", "protocol": "To test this hypothesis, J-Lat cells (clone A2: LTR-Tat-IRES-GFP) were treated with SMYD2 inhibitors. […] Both cell lines were co-treated with X2 and Ingenol 3,20-dibenzoate (a protein kinase C (PKC) activator), JQ1 (BET-bromodomain inhibitor), or the histone deacetylase (HDAC) inhibitor suberoylanilidehydroxamic acid (SAHA)."}, "SMYD2": {"target": "SMYD2 (Homo sapiens, UniProt Q9NRG4)", "sequence (Q9NRG4 whole entry)": "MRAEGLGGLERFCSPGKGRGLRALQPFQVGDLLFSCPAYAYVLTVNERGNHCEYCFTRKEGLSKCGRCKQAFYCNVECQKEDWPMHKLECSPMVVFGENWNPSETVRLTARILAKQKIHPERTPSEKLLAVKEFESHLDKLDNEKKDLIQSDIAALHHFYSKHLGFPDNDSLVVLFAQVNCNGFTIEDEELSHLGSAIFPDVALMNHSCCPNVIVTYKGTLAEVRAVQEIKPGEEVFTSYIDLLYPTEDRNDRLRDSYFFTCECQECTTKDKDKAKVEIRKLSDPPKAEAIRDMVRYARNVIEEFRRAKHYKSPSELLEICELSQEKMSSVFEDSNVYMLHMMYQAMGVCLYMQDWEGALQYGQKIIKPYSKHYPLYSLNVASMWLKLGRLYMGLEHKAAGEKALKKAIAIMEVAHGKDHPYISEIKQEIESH", "test": "In vitro SMYD2 methylation assay of histone H4", "assay_type": "biochemical", "parameters": "purchased Sigma-Aldrich", "protocol": "In vitro Methylation assays were performed as described (Nishioka et al., 2002). For reactions, 2 gtg of histones (isolated from HEK293T cells), recombinant histone 4 (New England Biolabs), synthetic histone 4 as 1-21 and as 15-24 peptides (Cayman Chemical), or synthetic histone H4 as 1-21 with a K20A mutation (GenScript) were incubated with recombinant WT SMYD2 (Sigma-Aldrich) or SMYD2 Y240F (Active Motif) in a buffer containing 50 mM Tris-HCl, pH 9, 0.01% Tween 20, 2 mM DTT and 1.1 μCi of H3-labeled SAM (Perk-in Elmer) overnight at 30° C. Reaction mixtures were fractionated on 15% SDS-PAGE for proteins or on 10-20% Tris-Tricine gradient gels for peptides (BioRad). After Coomassie staining, gels were treated with Amplify. (GE Healthcare) for 30 min, dried and exposed to hyperfilm (GE Healthcare) overnight."}, "[2]": {"system": "latent HIV-1 in primary CD4+ T cells", "test": "Primary T-cell model of HIV latency (Greene model), NL4-3-Luc luciferase", "assay_type": "cell-based", "protocol": "Peripheral blood mononuclear cells (PBMC) were isolated by Ficoll-Hypaque density gradient centrifugation of buffy coats from HIV-seronegative donors (Blood Centers of the Pacific). PBMCs were immediately processed to isolate CD4^+ T cells. Total CD4^+ T cells were isolated by negative selection, according to manufacturer's protocol, with the EasySep CD4^+ T-cell Enrichment Kit (Stem Cell Technologies). Isolated CD4^+ T cells were cultured in RPMI as described above at a concentration of 1×10^6 cells/ml for 24 h before HIV infection.\nCD4^+ T cells were counted, collected as pellets by centrifugation at 1500 rpm for 5 min at room temperature, and resuspended in the appropriate volume of concentrated viral NL4-3-Luc supernatant. Typically, 50-200 ng of p24Gag per 4×10^5 CD4^+ T cells were used. Spinoculations with NL4-3-Luc virus were performed in 96-well V-bottom plates with up to […] HLAC or CD4 T cells per well. All spinoculations were performed in volumes of 200 μl or less. Cells and virus were centrifuged at 2000 rpm for 1.5-2 h at room temperature. After spinoculation, cells were pooled and cultured at a concentration of 1×10^6 cells/ml in RPMI 1640 containing 10% FBS and supplemented with 5 μM saquinavir for 3 days to prevent residual spreading infection. Saquinavir was purchased from Sigma.\nFor reactivation of latent HIV-1 provirus, cells were counted and collected as pellets by centrifugation at 1500 rpm for 10 min. Cells were then plated in 96-well U-bottom plates at concentrations of 1×10^6/200 μl in the presence of the indicated activator. Unless otherwise indicated, cells were cultured either in medium alone or stimulated with 5 μg/ml phytohemagglutinin (PHA) (Sigma), 10 ng/ml TNF-α, anti-CD3+anti-CD28 beads at a ratio of 1:1. SAHA, JQ1 and X2 were tested at the indicated concentrations. Cells were harvested 48 hr after stimulation, washed one time with PBS, and lysed in 60 μl of Cell Lysis Buffer (Promega). After 15 min of lysis, the luciferase activity in cell extracts was quantified with a BD Monolight Luminometer after mixing 20 μl of lysate with 100 μl of substrate (Luciferase Assay System-Promega). Relative light units were normalized to protein content determined by BCA assay (Pierce). Cell survival rates were measured by flow cytometry immediately before lysis.\nSince X2 activated HIV from latency in A2 and A72 cell lines, this compound was tested in a primary T-cell model of latency (Lassen, Greene). In this model, CD4+ T cells were infected in a single-round infection with HIV clone NL4-3-Luc to generate a latent infection in vitro. To reactivate latent HIV-1, cells were treated with the indicated compounds or a combination of PHA/IL-2 as a control for maximal activation. X2 in combination with JQ1 reactivated latent HIV-1 at 8-25% of the rate achieved by costimulation with PHA/IL-2 (FIG. 9). X2 in combination with Ingenol 3,20-dibenzoate reactivated latent HIV-1 at 30-85% of the rate achieved by costimulation with PHA/IL-2 (FIG. 10)."}, "[3]": {"system": "CD4+ T cells from HIV-1-infected individuals", "test": "Cell viability (CellTiter-Blue, Zombie Violet) of ex vivo treated CD4+ T cells", "assay_type": "cell-based, human", "conditions": "at the indicated concentrations (up to 500 nM)", "source_text": "FIGS. 15 A-G depict the structural formulae for AZ505, AZ506, and AZ391, and the reactivation of latent HIV-1 with SMYD2 inhibitor X2 (AZ391) in CD4^+ T cells from HIV-1 infected individuals. (A) Structures of each compound are shown. (B) Intracellular HIV-1 mRNA levels in CD4^+ T cells, obtained from an infected individual (#1036) and treated ex vivo with AZ391, JQ1 or a combination of both, in indicated concentrations, presented as fold induction relative to DMSO control. Activation with αCD3/αCD28-Dynabeads was performed as control. (C) Flow cytometry of T-cell activation markers CD69 and CD25 in the same experiment. For each treatment group, CD69^+ (left) and CD25^+ (right). Shown as percentage of positive cells relative to αCD3/αCD28-treated cells (D) Cell viability as measured by CellTiter-Blue® Cell Viability assay (Promega) and Zombie Violet Fixable Viability kit (BioLegend) and presented as percentage of DMSO control treated cells. Data points indicate average of three technical replicates of donor #1036. (E-G) Same experiments as in b-d but performed with CD4^+ T cells obtained from three additional individuals (2013, 2185, 2511) with a single concentration of AZ391 (500 nM). In f and g, average of the three biological replicates (±SD) is show. For (F), for each treatment group, CD69^+ (left) and CD25^+ (right)."}}, "note": "“Also recorded” adds a separate entry of the source.", "data": [{"smiles": "N#Cc1cc(C(=O)NCCCN2CCCC2)cc(-c2ccccc2N2CCN(CCc3c[nH]c4ccccc34)CC2)c1", "note": "[AZ391]", "values": [{"measurement": "GFP-expressing cells compared with control-treated cells", "setting": "[1]; A2 J-Lat cells", "value": "up to threefold more GFP-expressing cells than control-treated cells"}, {"measurement": "activation of HIV transcription / reactivation of the HIV-LTR (GFP)", "setting": "[1]; A2 J-Lat cells, single agent", "value": "activated HIV transcription in a dose-dependent manner"}, {"measurement": "cell death", "setting": "[1]; at the concentration that effectively activated HIV transcription", "value": "slight increase in cell death"}, {"measurement": "methylation of recombinant human histone H4 by SMYD2", "setting": "SMYD2; full-length histone H4, 3H-SAM autoradiography", "value": "inhibited"}, {"measurement": "methylation of synthetic histone H4 peptides by SMYD2", "setting": "SMYD2; peptides aa 1-21 and aa 15-24", "value": "suppressed"}, {"measurement": "reactivation of latent HIV-1 as % of the rate achieved by costimulation with PHA/IL-2", "setting": "[2]; in combination with Ingenol 3,20-dibenzoate", "value": "30-85%"}, {"measurement": "reactivation of latent HIV-1 as % of the rate achieved by costimulation with PHA/IL-2", "setting": "[2]; in combination with JQ1", "value": "8-25%"}, {"measurement": "reactivation of latent HIV-1, synergy", "setting": "[2]; with JQ1", "value": "synergy"}, {"measurement": "reactivation of latent HIV-1, combination effect", "setting": "[2]; with SAHA, listed as X2", "value": "modest activation; also recorded: minimal synergy"}, {"measurement": "reactivation of latent HIV-1, synergy", "setting": "[2]; with ingenol 3,20-dibenzoate", "value": "synergy"}, {"measurement": "cell viability", "setting": "[3]", "value": "no impact on cell viability"}]}]}
